In US20110237499A1, “HYBRID TRIPYRROLE-OCTAARGININE COMPOUNDS AND THEIR USE AS MEDICAMENT IN THE TREATMENT OF CANCER AND MICROBIAL ILLNESSES” (priority 2008, published 2011):
Square brackets hold non-standard residues; d marks the D form. Peptide text beside a SMILES is read from it. * marks the point of attachment. FITC = O=C1OC2(c3ccc(O)cc3Oc3cc(O)ccc32)c2ccc(NC(=S)*)cc21; Ahx = NCCCCCC(=O)O

Columns and labels:
HeLa cells = assay: Cellular internalization assay in live HeLa cells (fluorescence microscopy); format: cell-based
Description: The internalization assays were performed in live HeLa cells.
The internalization assays were performed in live HeLa cells, recording the fluorescence images after 30 min, 90 min and 3 h.

HeLa 229 cells = assay: cells; format: cell-based; details: 48 hours incubation
Description: Preliminary cytotoxicity studies have been performed using HeLa 229 cells, to verify the possible effect of the presence of octaarginine chain on the biological activity. These studies have been performed following an incubation during 48 hours and they were later evaluated by cell staining by crystal violet and later acetylation.

## N=C(N)NCCC[C@H](NC(=O)[C@H](CCCNC(=N)N)NC(=O)[C@H](CCCNC(=N)N)NC(=O)[C@H](CCCNC(=N)N)NC(=O)[C@H](CCCNC(=N)N)NC(=O)[C@H](CCCNC(=N)N)NC(=O)[C@H](CCCNC(=N)N)NC(=O)[C@H](CCCNC(=N)N)NC(=O)CCCCCNC(=O)[C@H](CCCCN)NC(=O)CCCCCNC(=S)Nc1ccc2c(c1)C(=O)OC21c2ccc(O)cc2Oc2cc(O)ccc21)C(N)=O [1B] ({FITC-Ahx}-K[Ahx]RRRRRRRR-NH2)
HeLa cells; images after 30 min, 90 min and 3 h
  extent of internalization (intracellular fluorescence): the fluorescence is intense
HeLa cells; incubation 90 min at 37° C., FIG. 2
  intracellular localization of the fluorescence signal: exclusively localized in the cytoplasm
HeLa 229 cells; concentration 5.87 μM
  % Inhibition of the cellular growth: 1 ± 2%

## CC(=O)Nc1c[nH]c(C(=O)Nc2cc(C(=O)Nc3cc(C(=O)NCCCN(C)C)n(C)c3)n(C)c2)c1 [compound 9]
HeLa 229 cells; Homo sapiens, HeLa 229, concentration 176.5 μM, read-out: % Inhibition of the cellular growth
  inhibition at 176.5 µM: 4 ± 3%
